The values below are quoted from earlier work in patent publication US11905435B2, “Antimicrobial additive compositions for coatings” (PEGASUS ENVIRONMENTAL RESEARCH AND INVESTMENT GROUP LLC, priority 2020, dated 2024).

One series has as its system enteric bacteria. The note with it: Bailey et al. [5].
A further series deals with Pityrosporum ovale. The note with it: Imokawa et al. [6].
Series [1] relates to Saccharomyces cerevisiae yeast. The note with it: Reeder et al. [7].

As to `OB(O)O` [boric acid], the “antibacterial effects on enteric bacteria” value in the series with enteric bacteria is listed as “antibacterial effects”.

Regarding zinc pyrithione [CP], the “antifungal effects on Pityrosporum ovale” value with Pityrosporum ovale was “antifungal effects”. The “anti-yeast effect on Saccharomyces cerevisiae” value in series [1] was “anti-yeast effect”.
